What was measured:
Assay type in all cases: functional
[1] = system: K562; experiment: Growth inhibition of human K562 cells assessed as cell growth at 10^-5 M incubated for 48 hrs by sulforhodamine B assay relative to control; conditions: K562, 48 h, read-out: Activity
[2] = system: SR; experiment: Growth inhibition of human SR cells assessed as cell growth at 10^-5 M incubated for 48 hrs by sulforhodamine B assay relative to control; conditions: read-out: Activity
[3] = system: EKVX; experiment: Growth inhibition of human EKVX cells assessed as cell growth at 10^-5 M incubated for 48 hrs by sulforhodamine B assay relative to control; conditions: read-out: Activity
[4] = system: HOP-62; experiment: Growth inhibition of human HOP62 cells assessed as cell growth at 10^-5 M incubated for 48 hrs by sulforhodamine B assay relative to control; conditions: HOP-62, 48 h, read-out: Activity
[5] = system: HOP-92; experiment: Growth inhibition of human HOP92 cells assessed as cell growth at 10^-5 M incubated for 48 hrs by sulforhodamine B assay relative to control; conditions: HOP-92, 48 h, read-out: Activity
[6] = system: NCI-H23; experiment: Growth inhibition of human NCI-H23 cells assessed as cell growth at 10^-5 M incubated for 48 hrs by sulforhodamine B assay relative to control; conditions: NCI-H23, 48 h, read-out: Activity
[7] = system: NCI-H322M; experiment: Growth inhibition of human NCI-H322M cells assessed as cell growth at 10^-5 M incubated for 48 hrs by sulforhodamine B assay relative to control; conditions: read-out: Activity
[8] = system: NCI-H522; experiment: Growth inhibition of human NCI-H522 cells assessed as cell growth at 10^-5 M incubated for 48 hrs by sulforhodamine B assay relative to control; conditions: NCI-H522, 48 h, read-out: Activity
[9] = system: COLO 205; experiment: Growth inhibition of human COLO205 cells assessed as cell growth at 10^-5 M incubated for 48 hrs by sulforhodamine B assay relative to control; conditions: COLO 205, 48 h, read-out: Activity
[10] = system: HT-29; experiment: Growth inhibition of human HT-29 cells assessed as cell growth at 10^-5 M incubated for 48 hrs by sulforhodamine B assay relative to control; conditions: HT-29, 48 h, read-out: Activity
[11] = system: KM12; experiment: Growth inhibition of human KM12 cells assessed as cell growth at 10^-5 M incubated for 48 hrs by sulforhodamine B assay relative to control; conditions: KM12, 48 h, read-out: Activity
[12] = system: SW-620; experiment: Growth inhibition of human SW620 cells assessed as cell growth at 10^-5 M incubated for 48 hrs by sulforhodamine B assay relative to control; conditions: SW-620, 48 h, read-out: Activity
[13] = system: SF-268; experiment: Growth inhibition of human SF268 cells assessed as cell growth at 10^-5 M incubated for 48 hrs by sulforhodamine B assay relative to control; conditions: SF-268, 48 h, read-out: Activity
[14] = system: SF-295; experiment: Growth inhibition of human SF295 cells assessed as cell growth at 10^-5 M incubated for 48 hrs by sulforhodamine B assay relative to control; conditions: SF-295, 48 h, read-out: Activity
[15] = system: SF-539; experiment: Growth inhibition of human SF539 cells assessed as cell growth at 10^-5 M incubated for 48 hrs by sulforhodamine B assay relative to control; conditions: SF-539, 48 h, read-out: Activity
[16] = system: SNB-19; experiment: Growth inhibition of human SNB19 cells assessed as cell growth at 10^-5 M incubated for 48 hrs by sulforhodamine B assay relative to control; conditions: SNB-19, 48 h, read-out: Activity
[17] = system: SNB-75; experiment: Growth inhibition of human SNB75 cells assessed as cell growth at 10^-5 M incubated for 48 hrs by sulforhodamine B assay relative to control; conditions: SNB-75, 48 h, read-out: Activity
[18] = system: U-251; experiment: Growth inhibition of human U251 cells assessed as cell growth at 10^-5 M incubated for 48 hrs by sulforhodamine B assay relative to control; conditions: U-251, 48 h, read-out: Activity
[19] = system: LOX IMVI; experiment: Growth inhibition of human LOXIMVI cells assessed as cell growth at 10^-5 M incubated for 48 hrs by sulforhodamine B assay relative to control; conditions: read-out: Activity
[20] = system: Malme-3M; experiment: Growth inhibition of human MALME-3M cells assessed as cell growth at 10^-5 M incubated for 48 hrs by sulforhodamine B assay relative to control; conditions: read-out: Activity
[21] = system: M14; experiment: Growth inhibition of human M14 cells assessed as cell growth at 10^-5 M incubated for 48 hrs by sulforhodamine B assay relative to control; conditions: M14, 48 h, read-out: Activity
[22] = system: MDA-MB-435; experiment: Growth inhibition of human MDA-MB-435 cells assessed as cell growth at 10^-5 M incubated for 48 hrs by sulforhodamine B assay relative to control; conditions: MDA-MB-435, 48 h, read-out: Activity
[23] = system: UACC-62; experiment: Growth inhibition of human UACC62 cells assessed as cell growth at 10^-5 M incubated for 48 hrs by sulforhodamine B assay relative to control; conditions: UACC-62, 48 h, read-out: Activity
[24] = system: OVCAR-5; experiment: Growth inhibition of human OVCAR5 cells assessed as cell growth at 10^-5 M incubated for 48 hrs by sulforhodamine B assay relative to control; conditions: OVCAR-5, 48 h, read-out: Activity
[25] = system: NCI/ADR-RES; experiment: Growth inhibition of human NCI/ADR-RES cells assessed as cell growth at 10^-5 M incubated for 48 hrs by sulforhodamine B assay relative to control; conditions: read-out: Activity
[26] = system: A498; experiment: Growth inhibition of human A498 cells assessed as cell growth at 10^-5 M incubated for 48 hrs by sulforhodamine B assay relative to control; conditions: A498, 48 h, read-out: Activity
[27] = system: ACHN; experiment: Growth inhibition of human ACHN cells assessed as cell growth at 10^-5 M incubated for 48 hrs by sulforhodamine B assay relative to control; conditions: read-out: Activity
[28] = system: CAKI-1; experiment: Growth inhibition of human Caki1 cells assessed as cell growth at 10^-5 M incubated for 48 hrs by sulforhodamine B assay relative to control; conditions: CAKI-1, 48 h, read-out: Activity
[29] = system: TK-10; experiment: Growth inhibition of human TK10 cells assessed as cell growth at 10^-5 M incubated for 48 hrs by sulforhodamine B assay relative to control; conditions: TK-10, 48 h, read-out: Activity
[30] = system: UO-31; experiment: Growth inhibition of human UO31 cells assessed as cell growth at 10^-5 M incubated for 48 hrs by sulforhodamine B assay relative to control; conditions: UO-31, 48 h, read-out: Activity
[31] = system: DU-145; experiment: Growth inhibition of human DU145 cells assessed as cell growth at 10^-5 M incubated for 48 hrs by sulforhodamine B assay relative to control; conditions: DU-145, 48 h, read-out: Activity
[32] = system: BT-549; experiment: Growth inhibition of human BT549 cells assessed as cell growth at 10^-5 M incubated for 48 hrs by sulforhodamine B assay relative to control; conditions: BT-549, 48 h, read-out: Activity
[33] = system: MDA-MB-468; experiment: Growth inhibition of human MDA-MB-468 cells at 10^-5 M incubated for 48 hrs by sulforhodamine B assay relative to control; conditions: MDA-MB-468, 48 h, read-out: GI

SMILES	growth at 10 µM [1]	growth at 10 µM [2]	growth at 10 µM [3]	growth at 10 µM [4]	growth at 10 µM [5]	growth at 10 µM [6]	growth at 10 µM [7]	growth at 10 µM [8]	growth at 10 µM [9]	growth at 10 µM [10]	growth at 10 µM [11]	growth at 10 µM [12]	growth at 10 µM [13]	growth at 10 µM [14]	growth at 10 µM [15]	growth at 10 µM [16]	growth at 10 µM [17]	growth at 10 µM [18]	growth at 10 µM [19]	growth at 10 µM [20]	further results
O=C1Nc2ccccc2/C1=C/c1cccn1CCCCCn1c2ccccc2c(=O)c2ccccc21	52.1%	76.1%	71.8%	58.3%	65.5%	69.6%	98.8%	66.3%	56.2%	89.5%	12.1%	100%	83.3%	93.1%	94.2%	95.3%	86.7%	93.4%	80.3%	84.5%	growth at 10 µM [21]: 73.3%; growth at 10 µM [22]: 93.6%; growth at 10 µM [23]: 48.2%; growth at 10 µM [24]: 82.6%; growth at 10 µM [25]: 60.9%; growth at 10 µM [26]: 108%; growth at 10 µM [27]: 55.1%; growth at 10 µM [28]: 65.9%; growth at 10 µM [29]: 93.8%; growth at 10 µM [30]: 49.3%; growth at 10 µM [31]: 97.9%; growth at 10 µM [32]: 65.5%; inhibition of growth at 10 µM [33]: 62%
O=C1Nc2ccccc2/C1=C/c1cccn1CCCCn1c2ccccc2c(=O)c2ccccc21	59.5%	80.1%	86.1%	77.4%	59.5%	77.4%	101%	68.4%	69.8%	89.1%	13%	98.8%	83.1%	101%	93%	98.4%	78%	95.1%	82.5%	91.9%	growth at 10 µM [21]: 85.1%; growth at 10 µM [22]: 92.7%; growth at 10 µM [23]: 51.8%; growth at 10 µM [24]: 77.9%; growth at 10 µM [25]: 73.9%; growth at 10 µM [26]: 109%; growth at 10 µM [27]: 76.3%; growth at 10 µM [28]: 69.5%; growth at 10 µM [29]: 104%; growth at 10 µM [30]: 49.6%; growth at 10 µM [31]: 94.2%; growth at 10 µM [32]: 74.5%; inhibition of growth at 10 µM [33]: 49%

Source: ChEMBL document CHEMBL4308864, “Targeting tyrosine kinase: Development of acridone - pyrrole - oxindole hybrids against human breast cancer” (2019)
